Test results taken from BindingDB's records for doi:10.7270/Q2H993J6 (Pcmd, 2008).

Target: Coagulation factor XI (Homo sapiens, UniProt P03951)
Assay: FXIa inhibitor IC50 values, dose response, biochemical, hits from 1536-well screen (AID 846)
Conditions: pH 7.4; 23 °C

Coagulation factor XI, sequence (P03951 19-387 limits assumed): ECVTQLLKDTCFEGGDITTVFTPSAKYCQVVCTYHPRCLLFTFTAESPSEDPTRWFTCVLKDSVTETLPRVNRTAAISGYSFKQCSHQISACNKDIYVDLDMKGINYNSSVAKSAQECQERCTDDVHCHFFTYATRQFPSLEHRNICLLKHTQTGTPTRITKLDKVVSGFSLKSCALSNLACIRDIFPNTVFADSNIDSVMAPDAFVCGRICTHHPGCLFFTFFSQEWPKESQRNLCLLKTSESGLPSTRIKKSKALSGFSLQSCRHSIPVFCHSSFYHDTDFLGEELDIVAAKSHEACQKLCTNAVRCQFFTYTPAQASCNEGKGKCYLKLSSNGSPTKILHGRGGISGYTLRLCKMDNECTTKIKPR
Coagulation factor XI, sequence (P03951 388-625 limits assumed): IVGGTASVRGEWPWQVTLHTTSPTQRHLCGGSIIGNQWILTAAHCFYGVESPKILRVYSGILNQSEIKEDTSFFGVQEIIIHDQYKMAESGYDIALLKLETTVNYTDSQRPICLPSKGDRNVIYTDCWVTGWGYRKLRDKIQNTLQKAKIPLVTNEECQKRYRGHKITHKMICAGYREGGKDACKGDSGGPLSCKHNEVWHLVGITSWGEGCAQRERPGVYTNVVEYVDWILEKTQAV

## Cc1nn(CC(=O)c2ccc(Cl)s2)c(C)c1[N+](=O)[O-] [MLS001006606]
  IC50: > 50 µM

## O=C(COC(=O)c1cc(=O)c2ccccc2o1)NC1CCCCC1 [[2-(cyclohexylamino)-2-oxidanylidene-ethyl] 4-oxidanylidenechromene-2-carboxylate]
  IC50: > 50 µM

## Brc1cccc(CN=Nc2nnn[nH]2)c1 [SMR000279292]
  IC50: > 50 µM

## NC(=O)NOCc1ccccc1 [phenylmethoxyurea]
  IC50: > 50 µM

## COc1ccc([N+](=O)[O-])cc1NC(=O)CC1S/C(=N\c2cccc(C)c2C)N(N=Cc2cccc(OC)c2OC)C1=O (stereo not given)
  IC50: > 50 µM

## CS(=O)(=O)c1ccc(Cl)c(NC(=O)COC(=O)CNC(=O)c2ccccc2)c1 [2-benzamidoacetic acid [2-(2-chloro-5-methylsulfonylanilino)-2-oxoethyl] ester]
  IC50: > 50 µM

## O=C(NNC1=NCCCCC1)Nc1cccc(Cl)c1
  IC50: > 50 µM

## Cc1ccc(C(=O)ON=C2CCS(=O)(=O)c3sccc32)cc1 [[[7,7-bis(oxidanylidene)-5,6-dihydrothieno[2,3-b]thiopyran-4-ylidene]amino] 4-methylbenzoate]
  IC50: 3.46 µM

## C/C=C(\C)C(=O)OC1c2c(ccc3ccc(=O)oc23)OC(C)(C)C1OC(C)=O (stereo not given) [MLS000121833]
  IC50: > 50 µM

## O=C1OC(Nc2ccc(F)c([N+](=O)[O-])c2)c2ccccc21 (stereo not given) [SMR000434389]
  IC50: > 50 µM

## Oc1ccc(CN=Nc2nc(-c3cccnc3)nc3ccccc23)c(O)c1 [(4E)-3-hydroxy-4-[[2-(2-pyridin-3-ylquinazolin-4-yl)hydrazinyl]methylidene]cyclohexa-2,5-dien-1-one]
  IC50: > 50 µM

## COC(=O)c1c(NC(=O)COC(=O)Cn2cnc3ccccc32)sc(C)c1C [SMR000062436]
  IC50: > 50 µM

## CC(=O)c1ccc(NC(=O)C(Cl)=Cc2ccccc2)cc1 [(Z)-N-(4-acetylphenyl)-2-chloro-3-phenyl-2-propenamide]
  IC50: > 50 µM

## Cc1nc2cc(NC(=O)Nc3cccc(F)c3)ccc2n1C [MLS000708492]
  IC50: > 50 µM

## Cc1ccc(NS(=O)(=O)c2ccc(C(=O)OCC(=O)Nc3cc(C)on3)cc2)cc1 [[2-[(5-methyl-1,2-oxazol-3-yl)amino]-2-oxoethyl] 4-[(4-methylphenyl)sulfamoyl]benzoate]
  IC50: > 50 µM

## CC1(C)C2CCC(C2)C1(C)/N=C1\OC(CCl)CS1 (stereo not given) [MLS001012164]
  IC50: > 50 µM

## CC(Cc1ccccc1)=NNC(=O)CNC(=O)C=Cc1ccccc1 [(Z)-N-[2-oxo-2-[2-(1-phenylpropan-2-ylidene)hydrazinyl]ethyl]-3-phenyl-2-propenamide]
  IC50: > 50 µM

## FC(F)C(F)(F)C(F)(F)C(F)(F)c1cc(-c2ccccc2)n[nH]1 [MLS000106686]
  IC50: > 50 µM

## COc1ccc(S(=O)(=O)NCCOc2cccc3cccnc23)cc1OC [MLS000716779]
  IC50: > 50 µM

## CN1C(=O)C(=NOC(=O)c2ccccc2)c2ccccc21 [MLS000556117]
  IC50: 25.9 µM

## O=C(Cn1c(-c2ccccn2)nc2ccccc21)NN=Cc1cccnc1 [2-(2-pyridin-2-ylbenzimidazol-1-yl)-N-(pyridin-3-ylmethylideneamino)acetamide]
  IC50: > 50 µM

## CCOc1cc(CO)ccc1OCC(=O)N1CCCCC1 [2-[2-ethoxy-4-(hydroxymethyl)phenoxy]-1-(1-piperidinyl)ethanone]
  IC50: > 50 µM

## CCCNC(=O)C1CC(c2ccc(C(F)(F)F)cc2)=NO1 (stereo not given) [N-propyl-3-[4-(trifluoromethyl)phenyl]-4,5-dihydro-1,2-oxazole-5-carboxamide]
  IC50: 14.3 µM

## CC(C=NNC(=O)c1cc(-c2cccn2C)n[nH]1)=Cc1ccccc1
  IC50: > 50 µM

## Cc1cccc(NC(=O)c2cc(-n3c(O)ccc3O)ccc2Cl)n1
  IC50: > 50 µM

## COc1cc(CN=Nc2cc(C)nc(NS(=O)(=O)c3ccccc3)n2)ccc1O
  IC50: > 50 µM

## C=CCNc1nc(NC(C)(C)CO)nc(OC)n1 [SMR000117555]
  IC50: > 50 µM

## O=C(NNC(=O)c1cccs1)c1ccc(Br)o1 [5-bromo-N'-(thiophene-2-carbonyl)furan-2-carbohydrazide]
  IC50: 8.51 µM

## CC(=O)c1ccc(NC(S)=Nc2cccc3cnccc23)cc1 [1-(4-acetylphenyl)-3-(5-isoquinolinyl)thiourea]
  IC50: > 50 µM

## O=C1NN(c2ccccc2)C(=O)/C1=C\c1cccc(OC(=O)c2cccs2)c1 [MLS000534153]
  IC50: > 50 µM

## COc1ccccc1NS(=O)(=O)c1ccc(O)c(C(=O)OCC(=O)c2ccc(Cl)cc2Cl)c1 [SMR000369457]
  IC50: > 50 µM

## COc1cc2c(cc1/C=C/[N+](=O)[O-])OCO2 [MLS000706395]
  IC50: > 50 µM

## CC1=C(C(=O)OCCOc2ccccc2)C(c2ccsc2)NC(=O)N1C (stereo not given) [2-phenoxyethyl 3,4-dimethyl-2-oxo-6-thiophen-3-yl-1,6-dihydropyrimidine-5-carboxylate]
  IC50: > 50 µM

## Clc1ccccc1Cn1nnc2c(NCCN3CCOCC3)ncnc21 [3-[(2-chlorophenyl)methyl]-N-(2-morpholin-4-ylethyl)triazolo[4,5-d]pyrimidin-7-amine]
  IC50: > 50 µM

## Nn1c(C2CCCCC2)nc2ccccc2c1=O [3-azanyl-2-cyclohexyl-quinazolin-4-one]
  IC50: > 50 µM

## CC1=CCC2C(=O)N(C(C)c3ccccc3)C(=O)C2C1 (stereo not given) [5-methyl-2-(1-phenylethyl)-3a,4,7,7a-tetrahydro-1H-isoindole-1,3(2H)-dione]
  IC50: > 50 µM

## COc1ccc(C(=O)NN=Cc2cc3ccccc3[nH]c2=O)cc1
  IC50: > 50 µM

## CCSc1nnc(NC(=O)[C@H](C)N2C(=O)C3CC=CCC3C2=O)s1 (stereo partly drawn) [(2S)-2-(1,3-dioxo-3a,4,7,7a-tetrahydroisoindol-2-yl)-N-[5-(ethylthio)-1,3,4-thiadiazol-2-yl]propanamide]
  IC50: > 50 µM

## COc1ccc(N(CC(=O)NCc2ccc(Cl)cc2)S(=O)(=O)c2ccccc2[N+](=O)[O-])c(OC)c1 [N-[(4-chlorophenyl)methyl]-2-(2,4-dimethoxy-N-(2-nitrophenyl)sulfonylanilino)acetamide]
  IC50: > 50 µM

## Cn1nc(C(=O)Nc2nc(-c3ccc(F)cc3)cs2)ccc1=O [N-[4-(4-fluorophenyl)-1,3-thiazol-2-yl]-1-methyl-6-oxopyridazine-3-carboxamide]
  IC50: > 50 µM

## C=CCn1c(Cc2cccs2)nnc1SCC(=O)NCc1ccco1 [SMR000153108]
  IC50: > 50 µM

## O=C(O)c1ccc(/C=C2\SC(=S)N(Nc3ccccc3)C2=O)cc1 [4-[4-Oxo-3-phenylamino-2-thioxo-thiazolidin-(5Z)-ylidenemethyl]-benzoic acid]
  IC50: > 50 µM

## O=C1OCC2OC(O)C(O)C(O)C2OC(=O)c2cc(O)c(O)c(O)c2-c2c(O)c(O)c3oc(=O)c4c(c(O)c(O)c5oc(=O)c2c3c54)-c2c1cc(O)c(O)c2O (stereo not given) [SMR000445568]
  IC50: 6.08 µM

## O=C(Nc1nc(-c2ccccc2)cs1)c1ccc(S(=O)(=O)N2CCc3ccccc32)cc1 [SMR000235796]
  IC50: > 50 µM

## CCc1cc(-c2n[nH]cc2-c2nc3ccccc3n2C)c(O)cc1O [4-Ethyl-6-[4-(1-methyl-1H-benzoimidazol-2-yl)-1H-pyrazol-3-yl]-benzene-1,3-diol]
  IC50: > 50 µM

## Cc1cccc(CN2CCN(CC(=O)N3CCCC3)C2=O)c1 [SMR000130591]
  IC50: > 50 µM

## O=C(COC(=O)CCc1nc2ccccc2c(=O)[nH]1)Nc1ccc(Cl)cn1 [[2-[(5-chloropyridin-2-yl)amino]-2-oxoethyl] 3-(4-oxo-1H-quinazolin-2-yl)propanoate]
  IC50: > 50 µM

## CCc1nnc(NC(=O)c2ccc(NC(=O)C(C)C)cc2)s1 [SMR000290444]
  IC50: > 50 µM

## COc1cccc(C(=O)OCCN2CCOCC2)c1
  IC50: > 50 µM

## O=C1c2ccccc2C(=O)N1OS(=O)(=O)c1ccccc1 [Benzenesulfonic acid 1,3-dioxo-1,3-dihydro-isoindol-2-yl ester]
  IC50: 1.4 µM

## COc1ccc2c(c1)-c1nc(NC(=O)c3cccs3)sc1CC2 [N-(8-methoxy-4,5-dihydrobenzo[e][1,3]benzothiazol-2-yl)-2-thiophenecarboxamide]
  IC50: 41.3 µM

## COc1ccc(Cl)cc1NC(=O)Nc1cn(C)nc1C [SMR000458292]
  IC50: > 50 µM

## O=C(Nc1nc(-c2ccc(Cl)s2)cs1)c1cccs1 [SMR000065041]
  IC50: 0.364 µM

## N#C/C(=C\c1cccnc1)c1nc2ccccc2[nH]1 [(E)-2-(1H-Benzoimidazol-2-yl)-3-pyridin-3-yl-acrylonitrile]
  IC50: > 50 µM

## CCN(CC)CCNC(=O)c1ccc(NC(=O)c2cccc(S(=O)(=O)Nc3ccc(C)cc3)c2)cc1 [potassium;[3-[[4-[2-(diethylamino)ethylcarbamoyl]phenyl]carbamoyl]phenyl]sulfonyl-(4-methylphenyl)azanide]
  IC50: > 50 µM

## CCOC(=O)c1sc(NC(=O)CSC(=S)N2CCN(C)CC2)nc1C [MLS000332299]
  IC50: > 50 µM

## O=C(CSc1ncccn1)NN=Cc1cccc(OC2CSC2)c1
  IC50: > 50 µM

## C=CCNC(=S)N[N-][CH+]c1ccc(C)c([N+](=O)[O-])c1 [SMR000228955]
  IC50: > 50 µM

## C=C(C)CNC(=S)Nc1cccc(N)n1
  IC50: > 50 µM

## O=C1c2ccc(-c3ccc4c(c3)C(=O)N(CCO)C4=O)cc2C(=O)N1CCO [SMR000282940]
  IC50: > 50 µM

## CC(C)NC(=O)CSc1nc(-c2ccccc2)cs1 [2-[(4-phenyl-1,3-thiazol-2-yl)sulfanyl]-N-propan-2-yl-ethanamide]
  IC50: > 50 µM

## Cc1ccc(S(=O)(=O)ON2C(=O)c3ccccc3C2=O)c(C)c1 [MLS000579570]
  IC50: 1.08 µM

## CCc1ccc(NC(=O)CCn2cccc2)cc1 [SMR000130982]
  IC50: > 50 µM

## [O-][S+](NC1CCCCC1)C12CC3CC(CC(C3)C1)C2 (stereo not given)
  IC50: > 50 µM

## O=C(Cn1[nH]c(=O)c2ccccc2c1=O)Nc1cccc(S(=O)(=O)N2CCCCCC2)c1 [SMR000369234]
  IC50: > 50 µM

## O=C(Nc1ccc(Cl)cc1)Nc1nc(-c2ccccc2O)cs1 [1-(4-chlorophenyl)-3-[4-(2-hydroxyphenyl)-1,3-thiazol-2-yl]urea]
  IC50: > 50 µM

## COc1cc([N+](=O)[O-])cc2sc(NC(C)=O)nc12 [MLS000708454]
  IC50: > 50 µM

## Cc1cc(C)cc(NC(=O)c2ccc([N+](=O)[O-])o2)c1 [MLS000710428]
  IC50: > 50 µM

## CC(Cc1ccccc1)=NNC(=O)CNC(=O)c1ccccc1Cl [2-chloro-N-[2-oxo-2-[2-(1-phenylpropan-2-ylidene)hydrazinyl]ethyl]benzamide]
  IC50: > 50 µM

## COc1cc(C(=O)NCC(=O)OCn2nnc3ccccc3c2=O)cc(OC)c1OC [MLS001007360]
  IC50: > 50 µM
